Activity data for 23 compounds are collected here from ChEMBL document CHEMBL3867465, “Gastroprotective activity of synthetic coumarins: Role of endogenous prostaglandins, nitric oxide, non-protein sulfhydryls and vanilloid receptors” (2016).

Common to all, as to format: functional, Stomach
Test [1] concerns Mus musculus. In words: Gastroprotective activity in Swiss albino mouse assessed as reduction in HCl/EtOH-induced gastric lesions at 20 mg/kg, po pretreated for 50 mins followed by HCl/EtOH challenge measured after 1 hr. Also noted: scale not given: the % may be the effect or the level left.
The subject of test [2] is Mus musculus. In words: Gastroprotective activity in Swiss albino mouse assessed as reduction in HCl/EtOH-induced gastric lesions by measuring lesion index at 100 mg/kg, po pretreated for 50 mins followed by HCl/EtOH challenge measured after 1 hr (reference value: 38.8 +/- 1.6 millimeter).
The test system of test [3] is Mus musculus. In words: Gastroprotective activity in Swiss albino mouse assessed as reduction in HCl/EtOH-induced gastric lesions by measuring lesion index at 30 mg/kg, sc pretreated followed by HCl/EtOH challenge measured after 1 hr (reference value: 38.8 +/- 1.6 millimeter).
The subject of test [4] is Mus musculus. Description: Gastroprotective activity in Swiss albino mouse assessed as reduction in HCl/EtOH-induced gastric lesions by measuring lesion index at 70 mg/kg, ip pretreated followed by HCl/EtOH challenge measured after 1 hr (reference value: 38.8 +/- 1.6 millimeter).
The subject of test [5] is Mus musculus. Description: Gastroprotective activity in Swiss albino mouse assessed as reduction in HCl/EtOH-induced gastric lesions by measuring lesion index at 10 mg/kg, sc pretreated followed by HCl/EtOH challenge measured after 1 hr (reference value: 38.8 +/- 1.6 millimeter).
Test [6] deals with Mus musculus. In words: Gastroprotective activity in Swiss albino mouse assessed as reduction in HCl/EtOH-induced gastric lesions by measuring lesion index at 20 mg/kg, po pretreated for 50 mins followed by HCl/EtOH challenge measured after 1 hr in presence of sulfhydryl blocker N-ethylmaleimide (reference value: 38.8 +/- 1.6 millimeter).
The test system of test [7] is Mus musculus. In words: Gastroprotective activity in Swiss albino mouse assessed as reduction in HCl/EtOH-induced gastric lesions by measuring lesion index at 20 mg/kg, po pretreated for 50 mins followed by HCl/EtOH challenge measured after 1 hr in presence of vanilloid receptor antagonist ruthenium red (reference value: 38.8 +/- 1.6 millimeter).
The test system of test [8] is Mus musculus. Description: Gastroprotective activity in Swiss albino mouse assessed as reduction in HCl/EtOH-induced gastric lesions by measuring lesion index at 20 mg/kg, po pretreated for 50 mins followed by HCl/EtOH challenge measured after 1 hr in presence of PG synthesis inhibitor indomethacin (reference value: 38.8 +/- 1.6 millimeter).
Test [9] concerns Mus musculus. Description: Gastroprotective activity in Swiss albino mouse assessed as reduction in HCl/EtOH-induced gastric lesions by measuring lesion index at 20 mg/kg, po pretreated for 50 mins followed by HCl/EtOH challenge measured after 1 hr in presence of NO synthase inhibitor NG-nitro-L-arginine methyl ester (reference value: 38.8 +/- 1.6 millimeter).
For test [10], the system named is Mus musculus. In words: Gastroprotective activity in Swiss albino mouse assessed as reduction in HCl/EtOH-induced gastric lesions by measuring lesion index at 20 mg/kg, po pretreated for 50 mins followed by HCl/EtOH challenge measured after 1 hr (reference value: 38.8 +/- 1.6 millimeter).

Regarding `O=C(O)c1cc2ccc(O)cc2oc1=O`, the Activity in the test on Mus musculus [1] is 60%.
Same read-out and setting: the value for `O=C(O)Cc1cc(=O)oc2cc(O)ccc12` was 68%; that for `CC(=O)c1cc2ccc(O)cc2oc1=O` was 15%.
In the case of `CC(=O)c1cc2cccc(O)c2oc1=O`, the Activity with Mus musculus [1] is given as 41%.
On the same count and under the same terms, next, `CCOC(=O)c1cc2cccc(O)c2oc1=O`: 15%; `O=c1cc(CCl)c2ccc(O)cc2o1`: 57%; `O=c1cc(CN2CCN(CCO)CC2)c2ccc(O)cc2o1`: 65%.
The same measure, in the same setting: next, `O=C(Oc1ccccc1)c1cc2ccc(O)cc2oc1=O`: 63%.
Turning to `CCOC(=O)c1cc2cccc(OC)c2oc1=O`, in the test on Mus musculus [1], the Activity is 0%.
For `CNCc1cc(=O)oc2cc(O)ccc12`, the Activity with Mus musculus [1] is given as 49%.
Take `CCOC(=O)c1cc2ccccc2oc1=O`: in the test with Mus musculus [1], the Activity is reported as 35%.
On the same count and under the same terms, next, `O=c1cc(CCl)c2c(O)cc(O)cc2o1`: 42%; `CC(=O)c1cc2ccccc2oc1=O` [3-ACETYLCOUMARIN]: 66%; `Cc1cc(=O)oc2cc(O)cc(O)c12` [5,7-DIHYDROXY-4-METHYLCOUMARIN]: 45%.
For `CC1(C)[C@@H](OC(=O)CCC(=O)O)CC[C@]2(C)[C@H]3C(=O)C=C4[C@@H]5C[C@@](C)(C(=O)O)CC[C@]5(C)CC[C@@]4(C)[C@]3(C)CC[C@@H]12` [CARBENOXOLONE], the Activity with Mus musculus [2] worked out at 13.1 mm.
In the case of `O=c1ccc2cc(O)c(O)cc2o1` [ESCULETIN], the Activity with Mus musculus [1] is recorded as 17%.
Take `Cc1cc(=O)oc2cc(O)ccc12` [HYMECROMONE]: the Activity in the test on Mus musculus [1] is recorded as 31%.
Take `COc1ccc2c(c1)c(CC(=O)O)c(C)n2C(=O)c1ccc(Cl)cc1` [INDOMETHACIN]: in the test on Mus musculus [3], the Activity turned out to be 41.1 mm.
As for `COC(=O)[C@@H](N)CCCNC(=N)N[N+](=O)[O-]` [L-NAME], the Activity in the test with Mus musculus [4] stood at 35.7 mm.
On to `Cc1c(OCC(F)(F)F)ccnc1C[S+]([O-])c1nc2ccccc2[nH]1` (stereo not drawn) [LANSOPRAZOLE], for which, in the test with Mus musculus [1], the Activity worked out at 74%.
Take `CCN1C(=O)C=CC1=O` [N-ETHYLMALEIMIDE]: the Activity in the test on Mus musculus [5] is on record as 40.1 mm.
In the case of `O=c1cc(CN2CCOCC2)c2ccc(O)cc2o1` [OXAZORONE], the Activity in the test with Mus musculus [6] came to 28.8 mm; in the test on Mus musculus [7], 14.4 mm; in the test on Mus musculus [8] it was 13.6 mm; in the test on Mus musculus [9] it was 34.7 mm; with Mus musculus [1], 75%; with Mus musculus [10], 10.3 mm.
Consider `COc1cc2ccc(=O)oc2cc1O` [SCOPOLETIN], for which the Activity in the test on Mus musculus [1] is 61%.
